This is an account of results in US11179415B1 (priority 2020, dated 2021).

For data set [1] the following is noted: mouse; in drinking water up to several months; doses as high as 1000 mg/liter (1000 ppm or 0.1%); cited from earlier work.
The next data set deals with common cold. In words: inventor's self-use of CLO2 to prevent the common cold. In kind it is in vivo, human. The conditions noted are these: 5 ppm CLO2 nasal drops only, several drops per nostril 2 times per day, 3 days from prodromal period; one person.
The conditions of data set [2]: man; daily ingestion of 500 ml CLO2 at 5 ppm; cited from earlier work.
The conditions of data set [3]: rat; in drinking water up to several months; doses as high as 1000 mg/liter (1000 ppm or 0.1%); cited from earlier work.
In a further data set the test system is human Coronavirus. The conditions noted are these: BASF Aseptrol Label, EPA Registration Number 70060-19; cited from earlier work.
The test system of a further data set is SARS CoV-2. The conditions noted are these: in vivo.
Another data set has as its system Coronavirus SARS CoV-2. The conditions noted are these: Fact Sheet, National Agricultural Biosecurity Center, Kansas State University; cited from earlier work.
For data set [4] the following is noted: OSHA, cited from earlier work.
For data set [5] the following is noted: chicken; in drinking water up to several months; doses as high as 1000 mg/liter (1000 ppm or 0.1%); cited from earlier work.

Each structure is given as a SMILES string. Read-outs that look alike come from different tables or passages of the source.

Turning to `[O][Cl+][O-]` [CLO2, chlorine dioxide], the methemoglobin concentrations result in data set [1], in data set [3] and in [5] was “no significant increases” in each case. The “development of a common cold” value in the data set on common cold is “a cold never developed”. For the same compound, the “tolerability of daily ingestion” value in data set [2] is listed as “safely tolerated”. Moreover, the “efficacy against human Coronavirus” value in the data set on human Coronavirus is “effective against human Coronavirus”. The “lung irritation after inhalation of aerosol fog” value in the data set with SARS CoV-2 was “no resulting lung irritation”. Moreover, in the data set with SARS CoV-2, the “symptoms after contracting SARS CoV-2” value is reported as “only little to slight symptoms”. In addition, the “virucidal activity against SARS CoV-2” value in the data set with Coronavirus SARS CoV-2 is on record as “kills the Coronavirus SARS CoV-2”. Besides, in data set [4] (8-hour exposure), the “concentration safe for an 8-hour exposure” value is 0.1 ppm. Besides, the “concentration safe for short-time exposure limit (STEL)” value in data set [4] (STEL of 15 minutes) is 0.3 ppm.
With `[O-][Cl+2]([O-])O` [CLO3], the methemoglobin concentrations entry in [1], in [3] and in data set [5] was “no significant increases” in each case.
